Columns and labels:
HCT-116 = assay: Compound was tested for cytotoxicity against human colon tumor cell line (HCT116); format: functional, cell-based
[1] = target: Tubulin alpha chain (Sus scrofa) (UniProt P02550); assay: Compound was tested in vitro for inhibition of tubulin polymerization, expressed as ratio to that obtained for paclitaxel; format: functional
M109 = assay: Compound was tested in vivo against M109 using Madison murine lung carcinoma (M109) tumor model; format: functional, Mus musculus

Chain of Tubulin alpha chain (Sus scrofa) (P02550 whole entry, looked up): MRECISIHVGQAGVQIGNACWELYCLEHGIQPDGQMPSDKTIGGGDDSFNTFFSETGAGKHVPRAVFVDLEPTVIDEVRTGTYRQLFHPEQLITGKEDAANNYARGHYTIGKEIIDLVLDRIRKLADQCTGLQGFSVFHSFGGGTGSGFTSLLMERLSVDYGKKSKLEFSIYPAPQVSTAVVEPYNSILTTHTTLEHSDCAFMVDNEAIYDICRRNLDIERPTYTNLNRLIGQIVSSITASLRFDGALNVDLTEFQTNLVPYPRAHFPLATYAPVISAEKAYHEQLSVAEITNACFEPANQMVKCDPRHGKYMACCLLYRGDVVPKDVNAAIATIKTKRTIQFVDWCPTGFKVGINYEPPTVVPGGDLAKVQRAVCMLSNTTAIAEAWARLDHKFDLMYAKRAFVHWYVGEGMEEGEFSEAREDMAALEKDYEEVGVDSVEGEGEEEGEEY

Structure (SMILES) | IC50 (HCT-116) | Tubulin polymerization [1] | T/C (M109)
CC(=O)O[C@H]1C(=O)[C@@]2(C)C([C@H](OC(=O)c3ccccc3)[C@]3(O)C[C@H](OC(=O)[C@H](O)[C@@H](NC(=O)c4ccccc4)c4ccccc4)C(C)=C1C3(C)C)[C@]1(OC(C)=O)CO[C@@H]1C[C@@H]2OC(=O)CCCc1ccc(N(CCCl)CCCl)cc1 (some centres undefined) | 161 nM | 53 | 127%
CC(=O)O[C@H]1C(=O)[C@@]2(C)C([C@H](OC(=O)c3ccccc3)[C@]3(O)C[C@H](OC(=O)[C@H](O)[C@@H](NC(=O)c4ccccc4)c4ccccc4)C(C)=C1C3(C)C)[C@]1(OC(C)=O)CO[C@@H]1C[C@@H]2OCOC(=O)N(CCOC(=O)CCCc1ccc(N(CCCl)CCCl)cc1)CCOC(=O)CCCc1ccc(N(CCCl)CCCl)cc1 (some centres undefined) | 24 nM | 70 | 224%
CC(=O)OCCN(CCOC(C)=O)C(=O)OCO[C@H]1C[C@H]2OC[C@@]2(OC(C)=O)C2[C@H](OC(=O)c3ccccc3)[C@]3(O)C[C@H](OC(=O)[C@H](O)[C@@H](NC(=O)c4ccccc4)c4ccccc4)C(C)=C([C@@H](OC(C)=O)C(=O)[C@@]21C)C3(C)C (some centres undefined) | 3.9 nM | 6.5 | 17%
CC(=O)O[C@H]1C(=O)[C@@]2(C)[C@H]([C@H](OC(=O)c3ccccc3)[C@]3(O)C[C@H](OC(=O)[C@H](O)[C@@H](NC(=O)c4ccccc4)c4ccccc4)C(C)=C1C3(C)C)[C@]1(OC(C)=O)CO[C@@H]1C[C@@H]2O [PACLITAXEL] |  | 1 | 246%
CC(=O)O[C@H]1C(=O)[C@@]2(C)C([C@H](OC(=O)c3ccccc3)[C@]3(O)C[C@H](OC(=O)[C@H](O)[C@@H](NC(=O)c4ccccc4)c4ccccc4)C(C)=C1C3(C)C)[C@]1(OC(C)=O)CO[C@@H]1C[C@@H]2OCOC(=O)CCCc1ccc(N(CCCl)CCCl)cc1 (some centres undefined) | 4.6 nM | 62 | 155%
